Results as given in patent US20080045580A1, “Novel Isoxazole Compounds Having Ppar Agonist Activity” (DR REDDY'S LABORATORIES LIMITED, priority 2004, published 2008).

Tests used:
[1] = tested on: hypercholesterolemic Male Sprague Dawley rats; experiment: lipid lowering in hypercholesterolemic Sprague Dawley rats; assay type: in vivo; settings: hypercholesterolemic SD rats, 3 mg/kg orally for 3 days; for % Reduction TG: plasma triglycerides; for % Reduction TC: total cholesterol; for % Reduction LDL: LDL cholesterol calculated from TC, HDL, TG; for HDL % increase: values represent % increase
Protocol: Male Sprague Dawley rats (NIN stock) were bred in DRL animal house. Animals were maintained under 12 hour light and dark cycle at 25±1° C. Rats of 180-200 gram body weight range were used for the experiment. Animals were made hypercholesterolemic by feeding 2% cholesterol and 1% sodium cholate mixed with standard laboratory chow (NIN) for 6 days. Throughout the experimental period the animals were maintained on the same diet. Control rats were treated with vehicle alone (0.25% CMC; 10 ml/kg). Blood samples were collected in fed state 1 hour after drug administration on 0 and 3 days of treatment from the retro-orbital sinus through heparinized capillary tubes containing EDTA. After centrifugation, plasma sample was separated for total cholesterol, HDL and plasma triglyceride measurement. Measurement of total cholesterol, HDL and plasma triglyceride was done using a Vitalab Selectra autoanalyser (Merck). HDL was measured using a commercial kit. LDL and VLDL cholesterol were calculated from the data obtained for total cholesterol, HDL and plasma triglyceride.
The percent reductions in plasma triglycerides (TG)/total cholesterol (TC) were calculated as described in Example 55. The levels of LDL and VLDL cholesterol were calculated according to the following formulas: LDL cholesterol in mg/dl=[Total cholesterol−HDL cholesterol−Triglyceride/5] VLDL cholesterol in mg/dl=[Total cholesterol−HDL cholesterol−LDL cholesterol]

[2] = tested on: Male Swiss albino mice; experiment: plasma triglyceride lowering in Swiss albino mice; assay type: in vivo; settings: plasma triglycerides
Protocol: Male Swiss albino mice (SAM) were obtained from National Institute Nutrition (NIN, Hyderabad, India) and housed in Dr. Reddy's Laboratories Ltd (DRL) animal house. All these animals were maintained under 12 hour light and dark cycle at 25±1° C. Animals were given standard laboratory chow (NIN, Hyderabad, India) and water, ad libitum. Mice of 20-25 grams body weight range were used. See Olivier, et al., Atherosclerosis, 1988, 70:107-114, incorporated herein by reference in its entirety. The test compounds were administered orally to mice at the doses shown in the following in table for 6 days. […] After centrifugation, plasma was separated for plasma triglyceride and total cholesterol measurement. See Wieland, Methods of Enzymatic Analysis, Bergermeyer, ed., 1963, 211-214; Trinder, Ann. Clin. Biochenz., 1969, 6:24-27, incorporated herein by reference in their entireties. Measurement of cholesterol and plasma triglyceride was done using a […] autoanalyser (Merck). The percent reductions in plasma triglycerides (TG)/total cholesterol were calculated according to the following formula: [formula] OC=Zero day control group value OT=Zero day treated group value TC=Test day control group value TT=Test day treated group value.

[3] = biological target: T1, human PPARδ (Homo sapiens, UniProt Q03181); experiment: in vitro PPARδ transactivation (GAL4-LBD luciferase reporter in HEK-293 cells); assay type: cell-based
T1 construct: expressed in transfected cells; host or cells: HEK-293
T1 sequence (Q03181 211-439 limits assumed): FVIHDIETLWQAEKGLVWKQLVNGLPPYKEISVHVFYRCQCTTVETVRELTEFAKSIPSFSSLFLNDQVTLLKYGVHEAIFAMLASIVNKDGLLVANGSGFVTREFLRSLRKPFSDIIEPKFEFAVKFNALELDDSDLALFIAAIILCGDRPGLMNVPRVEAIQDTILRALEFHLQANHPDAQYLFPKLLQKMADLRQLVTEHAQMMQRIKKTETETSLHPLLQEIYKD
Text: (§1) The following procedure was used for in vitro determination of PPARα, γ and δ transactivation.
(§2) The ligand binding domain of human PPARγ1, PPARα or PPARδ was fused to the C-terminal end of DNA binding domain of yeast transcription factor GAL4 in eukaryotic expression vector. Using SuperFect (Qiagen), HEK-293 cells were transfected with this plasmid and a reporter plasmid harboring the luciferase gene driven under the control of 5 tandem GLA4 response elements. In some experiments, pAdVantage vector (Promega) was used to enhance luciferase expression. Compounds were added approximately 48 hours after transfection at various concentrations and incubated overnight. The cells were lysed and the luciferase activity was measured using the LucLite kit in Top Count (Packard). Luciferase activity was expressed as fold activation relative to untreated cells in the same experiment.

[4] = biological target: T2, human PPARγ1 (Homo sapiens, UniProt P37231); experiment: in vitro PPARγ transactivation (GAL4-LBD luciferase reporter in HEK-293 cells); assay type: cell-based
T2 construct: expressed in transfected cells; host or cells: HEK-293
T2 sequence (P37231 238-503 limits assumed): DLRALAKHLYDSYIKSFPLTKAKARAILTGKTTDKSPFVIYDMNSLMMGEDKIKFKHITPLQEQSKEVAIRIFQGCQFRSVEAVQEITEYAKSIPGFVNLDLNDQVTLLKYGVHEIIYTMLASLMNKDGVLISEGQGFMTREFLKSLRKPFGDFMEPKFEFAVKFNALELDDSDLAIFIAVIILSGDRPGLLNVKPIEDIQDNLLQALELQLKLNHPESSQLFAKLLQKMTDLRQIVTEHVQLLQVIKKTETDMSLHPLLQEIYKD
Text: as §1, §2

[5] = biological target: T3, human PPARα (Homo sapiens, UniProt Q07869); experiment: in vitro PPARα transactivation (GAL4-LBD luciferase reporter in HEK-293 cells); assay type: cell-based
T3 construct: expressed in transfected cells; host or cells: HEK-293
T3 sequence (Q07869 239-466 limits assumed): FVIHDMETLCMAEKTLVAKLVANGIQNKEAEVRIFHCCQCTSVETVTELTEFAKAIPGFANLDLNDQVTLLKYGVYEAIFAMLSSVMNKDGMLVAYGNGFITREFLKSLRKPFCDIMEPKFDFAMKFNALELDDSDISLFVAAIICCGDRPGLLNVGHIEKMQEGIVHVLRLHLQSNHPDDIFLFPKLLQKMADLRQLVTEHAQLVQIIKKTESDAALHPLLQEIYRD
Text: Generally, suitable PPAR agonists are believed to be useful for attenuating and/or treatment of diabetic dyslipidemia, metabolic syndrome, diabetes, cardiovascular disease, and obesity. The following procedure was used for in vitro determination of PPARα, γ and δ transactivation.
as §2

Row | SMILES | % Reduction TG [1] | % Reduction TC [1] | % Reduction LDL [1] | HDL % increase [1] | % reduction in TG ([2]; 1 mg/kg orally for 6 days) | PPARδ luciferase fold activation relative to untreated cells ([3]; 1 μM) | PPARδ luciferase fold activation relative to untreated cells ([3]; 10 μM) | PPARδ luciferase fold activation relative to untreated cells ([3]; 50 μM) | PPARγ luciferase fold activation relative to untreated cells ([4]; 1 μM) | PPARγ luciferase fold activation relative to untreated cells ([4]; 10 μM) | PPARγ luciferase fold activation relative to untreated cells ([4]; 50 μM) | PPARα luciferase fold activation relative to untreated cells ([5]; 1 μM) | PPARα luciferase fold activation relative to untreated cells ([5]; 10 μM) | PPARα luciferase fold activation relative to untreated cells ([5]; 50 μM) | melting point | % reduction in TG ([2]; 3 mg/kg orally for 6 days)
1 | O=C(O)C1(Cc2ccc(OCc3cc(-c4ccc(C(F)(F)F)cc4)no3)cc2)CCCO1 (centres unmarked) [Example 36] | 63% | 52% | 62% | 128% | 26% | 0.9 | 26.4 | 23.2 | 4.3 | 9.8 | 13.5 | 4.1 | 4.9 | 5.4 |  | 
2 | CCC(C)(Oc1ccc(OCCCc2cc(-c3ccccc3)no2)cc1)C(=O)O (centres unmarked) [Example 10] |  |  |  |  |  | 7.5 | 23 | 47 | 0.9 | 3.5 | 9.5 | 4.0 | 5.7 | 5.1 | 115 to 117 °C | 75%
3 | CCC(C)(Oc1ccc(OCc2cc(-c3ccc(OS(C)(=O)=O)cc3)no2)cc1)C(=O)O (centres unmarked) [Example 5] |  |  |  |  |  | 9.0 | 10 | 33 | 0.9 | 1.2 | 6.4 | 1.7 | 3.8 | 6.0 |  | 75%
4 | CCC(C)(Oc1ccc(OCc2cc(-c3ccc(C(F)(F)F)cc3)no2)cc1)C(=O)O (centres unmarked) [Example 11] | 55% | 71% | 76% | 139% |  |  |  |  | 2.4 | 2.7 | 3.6 | 4.1 | 4.0 | 4.0 | 136 to 138 °C | 65%
